Legend:
[1] = system: BH4 levels in SK-N-BE (2) cells; assay: SKN-N-BE (2) cellular assay, BH4 levels by LC-MS; format: cell-based; details: Homo sapiens, SKNBE2, read-out: SK-N-BE(2) IC50, SK-N-BE (2) cells, BH4 levels by LC-MS
[2] = target: SNAP-hSPR (sepiapterin reductase, SPR) (Homo sapiens, UniProt P35270); assay: biochemical; format: binding; details: terbium labelled SNAP-hSPR / SSZ labelled SNAP-EGFP; read-out: hTR-FRET IC50
Chain of SNAP-hSPR (sepiapterin reductase, SPR) (P35270 whole entry): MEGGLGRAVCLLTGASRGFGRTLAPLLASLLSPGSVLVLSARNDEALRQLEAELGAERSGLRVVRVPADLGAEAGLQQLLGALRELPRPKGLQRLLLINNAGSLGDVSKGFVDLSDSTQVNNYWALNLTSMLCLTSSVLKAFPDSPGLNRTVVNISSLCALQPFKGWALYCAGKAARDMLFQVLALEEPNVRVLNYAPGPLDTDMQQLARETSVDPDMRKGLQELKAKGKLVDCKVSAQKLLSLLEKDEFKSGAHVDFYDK

| Structure (SMILES) | IC50 [1] [µM] | IC50 [2] [µM] |
| --- | --- | --- |
| O=C(c1cnn(-c2nc3ccsc3c(=O)[nH]2)c1)N1CCC(C2CC2)CC1 [Q-0711] | 0.086 | 0.002 |
| O=C(c1cnn(-c2nc3ccsc3c(=O)[nH]2)c1)N1CCC(CC(F)(F)F)CC1 [Q-0712] | 0.3 | 0.002 |
| O=C(c1cnn(-c2nn3cccc3c(=O)[nH]2)c1)N1CCC(CC(F)(F)F)CC1 [Q-0713] | 0.2 | 0.001 |
| Cc1c(C(=O)N2CCNCC2)cnn1-c1nc2c(c(=O)[nH]1)CCC2 [Q-0714] | 8.1 | 0.03 |
| Cc1c(C(=O)N2CCN(c3ccc(F)cc3F)CC2)cnn1-c1nn2cccc2c(=O)[nH]1 [Q-0715] | 0.097 | 0.002 |
| O=C(c1cnn(-c2nn3cccc3c(=O)[nH]2)c1)N1CCC(S(=O)(=O)c2ccc(F)c(F)c2)CC1 [Q-0716] | 0.4 | 0.002 |
| O=C(c1cnn(-c2nc3c(c(=O)[nH]2)CCC3)c1)N1CCC(c2nc3ccc(F)cc3s2)CC1 [Q-0718] | 0.2 | 0.004 |
| O=C(c1cnn(-c2nn3cccc3c(=O)[nH]2)c1)N1CCC(C(O)(C(F)(F)F)C(F)(F)F)CC1 [Q-0719] | 0.2 | 0.002 |
| CC(C)(C#N)C1CCN(C(=O)c2cnn(-c3nn4cccc4c(=O)[nH]3)c2)CC1 [Q-0720] | 0.3 | 0.001 |
| Cc1c(C(=O)N2CCN(C)CC2)cnn1-c1nc2c(c(=O)[nH]1)CCC2 [Q-0722] | 3.3 | 0.02 |
| Cc1c(C(=O)N2CCN(C(=O)OC(C)(C)C)CC2)cnn1-c1nc2c(c(=O)[nH]1)CCC2 [Q-0723] | 0.2 | 0.003 |
| Cc1c(C(=O)N2CCC(CC(F)(F)F)CC2)cnn1-c1nc2sccc2c(=O)[nH]1 [Q-0724] | 0.2 | 0.002 |
| CCC1(C#N)CCN(C(=O)c2cnn(-c3nc4c(c(=O)[nH]3)CCC4)c2)CC1 [Q-0725] | 0.1 | 0.001 |
| N#CC1(c2ccccc2)CCN(C(=O)c2cnn(-c3nc4c(c(=O)[nH]3)CCC4)c2)CC1 [Q-0726] | 0.074 | 0.001 |
| Cc1c(C(=O)N2CCC(C3CC3)CC2)cnn1-c1nn2cccc2c(=O)[nH]1 [Q-0727] | 0.081 | 0.001 |
| CN(C(=O)OC(C)(C)C)[C@@H]1CCN(C(=O)c2cnn(-c3nn4cccc4c(=O)[nH]3)c2)C1 [Q-0730] | 0.2 | 0.001 |

| Structure (SMILES) | IC50 [1] [µM] | IC50 [2] [µM] |
| --- | --- | --- |
| Cc1c(C(=O)N2CCN(C)c3ccccc32)cnn1-c1nc2c(c(=O)[nH]1)CCC2 [Q-0731] | 0.053 | 0.002 |
| O=C(c1ccn(-c2nc3c(c(=O)[nH]2)CCC3)c1)N1CCC(C(F)(F)F)CC1 [Q-0732] | 0.1 | 0.001 |
| O=C(c1cnn(-c2nn3cccc3c(=O)[nH]2)c1)N1CCN(c2ccc(F)cc2F)CC1 [Q-0734] | 0.3 | 0.004 |
| O=C(c1cnn(-c2nc3c(c(=O)[nH]2)CCC3)c1)N1CCN(c2ccc(F)cc2F)CC1 [Q-0735] | 0.095 | 0.003 |
| Cc1c(C(=O)N2CC[C@@H](N(C)C(=O)OC(C)(C)C)C2)cnn1-c1nn2cccc2c(=O)[nH]1 [Q-0736] | 0.2 | 0.002 |
| O=C(c1ccn(-c2nn3cccc3c(=O)[nH]2)c1)N1CCC(C(F)(F)F)CC1 [Q-0738] | 0.1 | 0.001 |
| Cc1c(C(=O)N2C3CCC2CN(C(=O)OC(C)(C)C)C3)cnn1-c1nn2cccc2c(=O)[nH]1 [Q-0739] | 0.3 | 0.002 |
| O=C(c1cnn(-c2nn3cc(F)cc3c(=O)[nH]2)c1)N1CCC(CC(F)(F)F)CC1 [Q-0741] | 0.4 | 0.004 |
| O=C(c1cnn(-c2nc3c(c(=O)[nH]2)CCC3)c1)N1CCN2CCC[C@@H]2C1 [Q-0743] | 0.4 | 0.004 |
| O=C(c1cnn(-c2nc3c(c(=O)[nH]2)CCC3)c1)N1CCC(CC(F)(F)F)CC1 [Q-0744] | 0.1 | 0.003 |
| Cc1c(C(=O)N2C3CCC2CN(C(=O)OC(C)(C)C)C3)cnn1-c1nc2c(c(=O)[nH]1)CCC2 [Q-0745] | 0.2 | 0.004 |
| CCC1(C#N)CCN(C(=O)c2cnn(-c3nn4cc(F)cc4c(=O)[nH]3)c2)CC1 [Q-0746] | 0.6 | 0.004 |
| Cc1c(C(=O)N2CCC(CC(F)(F)F)CC2)cnn1-c1nn2cc(F)cc2c(=O)[nH]1 [Q-0747] | 0.8 | 0.008 |
| Cc1c(C(=O)N2CCC3(CN(C(=O)OC(C)(C)C)C3)C2)cnn1-c1nn2cccc2c(=O)[nH]1 [Q-0748] | 0.9 | 0.004 |
| Cc1c(C(=O)N2CC(c3ccc(F)c(F)c3)C2)cnn1-c1nc2c(c(=O)[nH]1)CCC2 [Q-0749] | 0.05 | 0.003 |

Source: patent US9963462B2 (priority 2015, dated 2018)
